Values of other authors as cited in patent US20050233005A1, “Use of glycosaminoglycans and zinc derivatives for insect bites, stings and the like” (priority 2004, published 2005).

Assays:
[1] = test system: pruritus caused by mosquito bites; details: administered prophylactically (Karppinen et al., 2002)
[2] = test system: porcine wounds; details: topical application (Tarnow et al., 1994; Agren et al., 2001)
[3] = topical applications and oral administration, animal models and humans (SCCNFP report, 2003)
[4] = test system: skin wound; details: topical application (Chen and Abatengelo, 1999)
[5] = test system: diabetic foot wounds; details: in wound dressings (Vazquez et al., 2003)

Compound | pruritus caused by mosquito bites [1] | toxicity [3] | further results
O=C(O)COCCN1CCN(C(c2ccccc2)c2ccc(Cl)cc2)CC1 (stereo not shown) [cetirizine] | significantly decrease |  | 
CC(C)(C)c1ccc(C(=O)CCCN2CCC(OC(c3ccccc3)c3ccccc3)CC2)cc1 [ebastine] | significantly decrease |  | 
[O]=[Zn] [zinc oxide] |  | little or no toxicity | release of growth factors [2]: enhanced
O=S(=O)([O-])[O-].[Zn+2] [zinc sulphate] |  | little or no toxicity | 
Hyaluronic acid [HA] |  |  | skin wound healing [4]: accelerate; healing of diabetic foot wounds [5]: beneficial
